Results published in the supplement of paper PMC7840683.
Where a name gives a salt, the structure may show the parent alone. ± gives the standard deviation of the averaged measurements.

System: HepaRG
Assay: LDH release cytotoxicity, % of total lysis control; higher = more cytotoxic
Conditions: 48 h
How it was run: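 HepaRG cells from a single lot were plated on collagen I-coated 96-well plates and treated in duplicate for 48 h with eight-point half-log series of test chemicals, starting at 100 µM, in serum-free induction medium containing 0.5% DMSO. Total lysis wells were given 0.1% Triton X. LDH released into 50 µL of spent medium was measured as resorufin fluorescence with CytoTox-ONE on a Tecan Safire. Percent cytotoxicity was normalized to on-plate vehicle and total lysis controls and then averaged across duplicates.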

| Compound | LDH release cytotoxicity (0.03162 µM) | LDH release cytotoxicity (0.1 µM) | LDH release cytotoxicity (0.3162278 µM) | LDH release cytotoxicity (1 µM) | LDH release cytotoxicity (3.16228 µM) | LDH release cytotoxicity (10 µM) | LDH release cytotoxicity (31.6228 µM) | LDH release cytotoxicity (100 µM) | also measured |
| --- | --- | --- | --- | --- | --- | --- | --- | --- | --- |
| CCCCC(CC)CN1C(=O)C2C3C=CC(C3)C2C1=O (centres undefined) [Octylbicycloheptenedicarboximide] | 0.282 ± 1.1% | -0.366 ± 0.72% | -0.0268 ± 1.1% | -1.18 ± 0.3% | -0.584 ± 0.76% | -0.999 ± 0.41% | -1.23 ± 0.39% | 8.34 ± 1% | – |
| CCCN(CCC)c1c([N+](=O)[O-])cc(S(N)(=O)=O)cc1[N+](=O)[O-] [Oryzalin] | -2.37 ± 0.48% | -2.04 ± 0.77% | -0.725 ± 1.5% | -1.89 ± 1.1% | -2.11 ± 0.66% | -2.88 ± 0.44% | -1.72 ± 0.24% | 77.1 ± 9.5% | – |
| CC(C)Oc1cc(-n2nc(C(C)(C)C)oc2=O)c(Cl)cc1Cl [Oxadiazon] | -0.101 ± 1% | -0.564 ± 0.81% | -0.449 ± 1.2% | 0.329 ± 0.022% | 0.576 ± 0.019% | 0.044 ± 0.0027% | 0.449 ± 0.49% | 13.02 ± 0.12% | – |
| CNC(=O)ON=C(SC)C(=O)N(C)C [Oxamyl] | -0.761 ± 0.13% | -0.802 ± 0.67% | -1.45 ± 0.73% | -1.85 ± 0.63% | -1.65 ± 0.22% | -1.06 ± 0.34% | -1.05 ± 0.48% | -1.42 ± 0.44% | – |
| CCOc1cc(Oc2ccc(C(F)(F)F)cc2Cl)ccc1[N+](=O)[O-] [Oxyfluorfen] | -0.516 ± 0.33% | 0.229 ± 1.1% | -0.848 ± 0.08% | -0.859 ± 0.59% | -0.159 ± 0.1% | -0.932 ± 0.39% | -2.53 ± 0.26% | -1.47 ± 0.42% | – |
| CN(C)C1C(=O)C(C(N)=O)C(=O)C2(O)C(=O)C3C(=O)c4c(O)cccc4C(C)(O)C3C(O)C12 (centres undefined) [Oxytetracycline dihydrate] | -2.54 ± 0.23% | -1.62 ± 0.88% | -1.71 ± 0.26% | -1.95 ± 0.25% | -1.59 ± 0.099% | -2.1 ± 0.93% | -3.27 ± 0.36% | -4 ± 0.13% | – |
| CN(C)C1C(=O)C(C(N)=O)C(=O)C2(O)C(=O)C3C(=O)c4c(O)cccc4C(C)(O)C3C(O)C12 (centres undefined) [Oxytetracycline hydrochloride] | -0.636 ± 0.43% | -0.707 ± 0.15% | -1.81 ± 0.59% | -1.93 ± 0.75% | -1.93 ± 0.7% | -1.21 ± 0.36% | -1.75 ± 1.1% | -1.47 ± 0.43% | – |
| CC(C)(C)C(O)C(Cc1ccc(Cl)cc1)n1cncn1 (centres undefined) [Paclobutrazol] | -0.9138 ± 0.0047% | -1.5 ± 0.066% | -1.02 ± 0.15% | -1.49 ± 1.2% | -1.96 ± 1% | -1.1 ± 0.17% | -1.36 ± 0.77% | -0.278 ± 0.059% | – |
| CCOP(=S)(OCC)Oc1ccc([N+](=O)[O-])cc1 [Parathion] | -1.76 ± 1.2% | -2.78 ± 0.71% | -2.35 ± 0.15% | -2.92 ± 0.81% | -3.21 ± 0.57% | -2.39 ± 0.84% | -1.78 ± 1.4% | 6.21 ± 0.097% | – |
| CCC(CC)Nc1c([N+](=O)[O-])cc(C)c(C)c1[N+](=O)[O-] [Pendimethalin] | -2.12 ± 0.66% | -1.6 ± 0.38% | -0.436 ± 0.39% | 0.269 ± 1.7% | 1.12 ± 0.21% | 0.875 ± 1.2% | -2.25 ± 0.069% | 1.08 ± 1.2% | – |
| COc1cnc(OC)n2nc(NS(=O)(=O)c3c(OCC(F)F)cccc3C(F)(F)F)nc12 [Penoxsulam] | -0.317 ± 0.26% | -1.82 ± 0.45% | -1.21 ± 0.65% | -1.71 ± 0.57% | -0.488 ± 0.1% | -0.309 ± 0.71% | -1.02 ± 0.03% | 0.729 ± 0.1% | – |
| O=[N+]([O-])c1c(Cl)c(Cl)c(Cl)c(Cl)c1Cl [Pentachloronitrobenzene] | -1.26 ± 0.72% | -1.49 ± 0.11% | -1.32 ± 0.71% | -1.55 ± 1.1% | -0.822 ± 1.5% | 0.118 ± 0.74% | 0.34 ± 0.41% | 2.25 ± 1.1% | – |
| Oc1c(Cl)c(Cl)c(Cl)c(Cl)c1Cl [Pentachlorophenol] | – | – | – | – | – | – | – | – | LDH release cytotoxicity (0.0161276 µM): -0.227 ± 0.28%; LDH release cytotoxicity (0.051 µM): -1.03 ± 0.34%; LDH release cytotoxicity (0.161276 µM): -1.01 ± 0.69%; LDH release cytotoxicity (0.51 µM): -0.425 ± 0.32%; LDH release cytotoxicity (1.6127616 µM): 1.21 ± 0.41%; LDH release cytotoxicity (5.1 µM): 9 ± 4.7%; LDH release cytotoxicity (16.127616 µM): 41.1 ± 1.3%; LDH release cytotoxicity (51 µM): 40.65 ± 0.23% |
| Clc1nc(Cl)c(Cl)c(Cl)c1Cl [Pentachloropyridine] | -0.545 ± 0.73% | -1.54 ± 0.25% | -1.28 ± 1.4% | -1.08 ± 1.1% | -0.873 ± 0.5% | -1.56 ± 0.52% | -0.833 ± 0.26% | 0.716 ± 0.84% | – |
| CCCCCCCCCCCCCCC [Pentadecane] | -1.39 ± 0.28% | -0.5079 ± 0.0034% | -0.0639 ± 1.3% | -1.27 ± 1.5% | -0.987 ± 0.93% | -0.163 ± 0.94% | 0.517 ± 0.29% | 1.96 ± 1.3% | – |
| OCC(CO)(CBr)CBr [Pentaerythritol dibromide] | -0.95 ± 0.41% | -1.43 ± 0.67% | -2.05 ± 0.21% | -2.19 ± 0.11% | -1.68 ± 0.31% | -1.56 ± 0.1% | -0.856 ± 0.31% | 0.8 ± 1.4% | – |
| OCC(CO)(CO)CO [Pentaerythritol] | -0.674 ± 0.59% | -1.13 ± 0.089% | -1.3 ± 0.092% | -1.89 ± 1% | -0.206 ± 1.4% | -1.15 ± 0.98% | -0.431 ± 0.65% | 0.764 ± 0.28% | – |
| N=C(N)c1ccc(OCCCCCOc2ccc(C(=N)N)cc2)cc1 [Pentamidine isethionate] | – | – | – | – | – | – | – | – | LDH release cytotoxicity (0.0276699 µM): -1.83 ± 0.92%; LDH release cytotoxicity (0.0875 µM): -2.81 ± 0.69%; LDH release cytotoxicity (0.276699 µM): -2.72 ± 0.49%; LDH release cytotoxicity (0.875 µM): -3.54 ± 0.15%; LDH release cytotoxicity (2.76699 µM): -2.52 ± 0.068%; LDH release cytotoxicity (8.75 µM): 19 ± 1.4%; LDH release cytotoxicity (27.6699 µM): 68.9 ± 1%; LDH release cytotoxicity (87.5 µM): 73.7 ± 2% |
